Test results: patent US20250241109A1, “Electron Transporting Self-Assembling Monolayer Compound for Use in Optoelectronic and/or Photoelectrochemical Devices and Manufacture Thereof” (Kaunas University of Technology, priority 2024, published 2025)
Read-outs that look alike come from different tables or passages of the source.

How the values were obtained:
Assay type in all cases: physicochemical
[1] = Contact potential difference (CPD) surface mapping on ITO
Description: The surface mapping of contact potential difference (CPD) values of V1264 on ITO confirmed uniformity of SAM coverage. The rather homogenous pattern was proportional to the narrow work function (WF) fluctuation in a specific area (˜4.45 eV), overall indicating a good V1264 coverage on ITO.

[2] = Cyclic voltammetry and optical band gap: energy levels in DMF and DCM solution; settings: for EHOMO: EHOMO=ELUMO+Eg opt; for ELUMO: calculated from E vs Fc/Fc^+ with conversion factors; for λ: edge of electronic absorption spectrum in solution; for E vs Fc/Fc^+: glassy carbon electrode, 0.1 M tetrabutylammonium hexafluorophosphate, calibrated with ferrocene; for Eg^opt-sol: optical band gap, Eg opt=1240/λ
Experimental: CV measurements were carried out by a three-electrode assembly cell from Bio-Logic SP-150. The measurements were carried out at a glassy carbon electrode in DMF and DCM solutions containing 0.1 M tetrabutylammonium hexafluorophosphate as an electrolyte, Pt as the counter electrode and as the reference electrode. Each measurement was calibrated with ferrocene (Fc) and potentials calculated to Fc^+/Fc. Conversion factors: ferrocene in DCM vs SCE 0.46, DMF vs SCE 0.45, SCE vs SHE: 0.244, SHE vs vacuum: 4.43 (N. G. Connelly, W. E. Geiger, Chemical Reviews 1996, 96, 877; V. V. Pavlishchuk, A. W. Addison, Inorganica Chimica Acta 2000, 298, 97). The half-wave potential E1/2vs Fc was obtained as an average value between maxima of cathodic and anodic potentials: E1/2 vs Fc=1/2([…]). The optical band gaps Eg opt=1240/λ was estimated from the edges of electronic absorption spectra in DCM and DMF solutions. ELUMO was calculated from the equation ELUMO=(E vs Fc/Fc^++(solvent vs SCE)+0.244+4.43. EHOMO calculated from the equation EHOMO=ELUMO[…].

[3] = Solubility in organic solvents
[4] = Water contact angle of ITO/SAM surface; settings: coated onto ITO, washed to remove unbound molecules
Description: It is noted that all the samples were washed with respective solvents to remove unbounded SAM molecules from the ITO substrate. […] The higher hydrophobicity of ITO/SAM substrate will affect the crystallization and morphology of perovskite film.^[21,22] The more hydrophobic surface (less wetting) of ITO/NDI-SAM surface can suppress the dragging force of perovskite inks, resulting in larger grain-size perovskite crystals, as indicated from top-view scanning electron microscopy (SEM) images in FIG. 6a,b.^[21,22] In addition, the tertbutyl groups of V1264 on the upper side can interact well with the perovskite layer, resulting in less pinholes or voids formed at ITO/V1264/perovskite interface, see FIG. 7.

[5] = UV/vis absorption and transmittance spectra
Description: In the n-i-p structure PSC light first posses through the ETL, thus it is important to minimize parasitic absorption of this layer.

[6] = Thermogravimetric analysis (TGA); settings: scan rate 10 K min^−1, nitrogen atmosphere
Experimental: TGA was performed on a Q50 thermogravimetric analyzer (TA Instruments) at a scan rate of 10 K min^−1 in the nitrogen atmosphere.

[7] = CHCl3, organic solvent or mixture, read-out: Solubility in CHCl3
[8] = DCM, organic solvent or mixture, read-out: Solubility in DCM
[9] = THF, organic solvent or mixture, read-out: Solubility in THF
[10] = organic solvent or mixture, methanol, sonicated, read-out: Solubility in Methanol

solubility ([3]; organic solvent or mixture, THF, sonicated, read-out: Solubility in THF) [µg/mL]	solubility ([3]; organic solvent or mixture, isopropanol, sonicated, read-out: Solubility in Isopropanol) [µg/mL]	solubility [3, 10] [µg/mL]	SMILES	Work function (WF) [1] [eV]	EHOMO [2] [eV]	ELUMO [2] [eV]	Voltammogram behaviour in solution ([2]; during the scans)	λ [2] [nm]	E vs Fc/Fc^+ [2] [V]	Eg^opt-sol [2] [eV]	solubility [3, 7] [µg/mL]	solubility [3, 8] [µg/mL]	solubility [3, 9] [µg/mL]	solubility ([3]; chlorobenzene, organic solvent or mixture, read-out: Solubility in Chlorobenzene) [µg/mL]	solubility ([3]; toluene, organic solvent or mixture, read-out: Solubility in Toluene) [µg/mL]	Water contact angle (surface hydrophobicity) [4]	Absorption in the visible region ([5]; UV/vis, 10^−4 M anhydrous dichloromethane)	Optical losses (UV-Vis transmittance) of SAM on ITO surface ([5]; compared to bare ITO and ITO/SnO2 films)	95% weight loss temperature [6] [°C]
			CC(C)(C)c1ccc(C(C)(C)C)c(N2C(=O)c3ccc4c5c(ccc(c35)C2=O)C(=O)N(CP(=O)(O)O)C4=O)c1 [Compound V1264, N-(2,5-di-tert-butyl-phenyl)-N′-(methyl)-1,4,5,8-naphthalene tetracarboxylic diimide phosphonic acid]	~4.45	−6.97	−3.81	reversible reduction waves	392	−1.34	3.16	≤ 7500	≤ 15000	≤ 6500	≤ 13000	≤ 800	around 78.4 °	no apparent absorption in the visible region	neglectable optical losses	356
≤ 500	≤ 500	≤ 700	O=C1c2cc(Br)c3c4c(cc(Br)c(c24)C(=O)N1CP(=O)(O)O)C(=O)N(CP(=O)(O)O)C3=O [Compound V1486]		−6.76	−3.86		426	−1.26	2.90									
		≤ 500	O=C1c2ccc3c4c(ccc(c24)C(=O)N1CP(=O)(O)O)C(=O)N(CP(=O)(O)O)C3=O [Compound V1612, N, N′-bi(methyl)-1,4,5,8-naphthalene tetracarboxylic diimide diphosphonic acid]		−6.97	−3.9		403	−1.17	3.07									
			CC(C)(C)c1ccc(C(C)(C)C)c(N2C(=O)c3ccc4c5c(ccc(c35)C2=O)C(=O)N(CCP(=O)(O)O)C4=O)c1 [Compound V1624, N-(2,5-di-tert-butyl-phenyl)-N′-(ethyl)-1,4,5,8-naphthalene tetracarboxylic diimide phosphonic acid]		−7.11	−3.96		393	−1.16	3.15	≤ 5000	≤ 7000	≤ 1000						
		≤ 500	O=C1c2ccc3c4c(ccc(c24)C(=O)N1CCP(=O)(O)O)C(=O)N(CCP(=O)(O)O)C3=O [Compound V1625, N, N′-bis(ethyl)-1,4,5,8-naphthalene tetracarboxylic diimide diphosphonic acid]		−6.91	−3.79		397	−1.32	3.12									
			CC(C)(C)c1ccc(C(C)(C)C)c(N2C(=O)c3ccc4c5c(ccc(c35)C2=O)C(=O)N(c2ccc(P(=O)(O)O)cc2)C4=O)c1 [Compound V1635]		−6.98	−3.84		394	−1.28	3.14	≤ 15000	≤ 10000							
